Columns and labels:
[1] = test system: bacterial SssI methyltransferase; experiment: DNA methylase substrate activity with bacterial SssI enzyme preparation; assay type: biochemical
Excerpt: (§1) They are labeled Sense (S), Antisense (AS), Methylated Antisense 1 (M1) and Methylated Antisense 2 (M2). […] This property of M2 provides an approach to accurately monitoring levels of DNA methyltransferase activity in clinically obtained tissue samples that might otherwise be contaminated by bacteria, since bacterial DNA methyltransferase activity would be excluded as a component of this measurement.
RESULTS ARE AVERAGE OF 2 EXPTS. BACTERIAL SSS1 ENZYME PREPARATION. ASSAYE

[2] = test system: bacterial DNA methyltransferases; experiment: Methylation by bacterial DNA methyltransferases that require double stranded DNA; assay type: biochemical
Excerpt: as §1

murine DNA 5-C-MTase [3] = experiment: Methylation assay: methyl transfer from [methyl-3H]AdoMet to ODNs by DNA methyltransferase from Friend erythroleukemia cell nuclei; assay type: biochemical; conditions: Table 2; enzyme preparation from Friend leukemia cells; 1 μg oligomer; average of 2 expts; background 2691
murine DNA 5-C-MTase [4] = experiment: as above; assay type: biochemical
Method: The phosphoramidite of 5-fluorodeoxycytidine (5FdC) and unmodified 5-methyl deoxycytosine (5MdC) and 5FC-containing ODNs were synthesized and purified as described in Marasco, C. J. et al., J. Org. […] 5MdC phosphoramidite is commercially available. ss ODNs were heated to 90° C. for 10 min and quickly chilled on ice immediately prior to assay. […] For ds ODNs, an equimolar mixture of complementary ODNs was heated to 90° C. for 10 min and slowly cooled to room temperature.
Preparation of Murine DNA 5-C-MTase. The DNA 5-C-MTase used in these studies was the 100,000×g supernatant of a 0.3M NaCl extract of Friend erythroleukemia cell nuclei.
Methylation Assay. Reaction mixtures (50 μl ) in 0.1M imidazole, pH 7.4/20 mM EDTA/0.5 mM dithiothreitol contained 0.5 μg of each ODN indicated, ≈0.6 units of DNA 5-C-MTase (1 unit transfers 1 pmol to A (AS)·A'Mp (M1) per min; see Table 7), and 2.8 μCi (1 Ci=37 GBq) of [methyl-^3 H]AdoMet (AdoMet=S-adenosylmethionine) (8 μM). […] For accuracy, methylation rates <5 pmol/30 min were measured in quadrupled reaction mixtures (200 μl ). After incubation for 30 min at 37° C., ODNs were processed for quantitation of radiolabel as described (20) with 25 μg of salmon sperm DNA added as carrier prior to perchloric acid precipitation.
All assays were performed in duplicate.

Friend leukemia cells = experiment: Growth of Friend leukemia cells treated with phosphorothioate end capped oligomers; assay type: cell-based, murine; set-up: dose or concentration left out as unconfirmed; conditions: concentrations of oligomers
Method: Having established that specific phosphorothioate end capped ODNs retain activity against DNA methyltransferase, their biological effects were examined in intact Friend cells: the biological effects of oligomer A were compared to oligomer B which has no available substrate sites and thus cannot be an inhibitor of DNA methyltransferase, and of oligomer D with oligomer C which has no FC.
A test was conducted to determine if these oligomers affect growth or differentiation of Friend leukemia cells. If growth effects are due to the toxicity of FC released from oligomers, then oligomer A and oligomer B should have equivalent effects and oligomer C should have no effect on growth.
Oligomer C may have a minor effect if it competes with endogenous DNA for DNA methyltransferase binding in a reversible manner. If, however, growth effects are due to a generalized effect of high oligomer concentration, then all oligomers, A, B and C, should affect growth similarly.

[5] = molecular target: T1, DNA 5-C-methyltransferase (murine, Friend erythroleukemia cells) (Mus musculus, UniProt P13864 P13864:1-1620); experiment: methylation rate; conditions: protein: extract; tags: 0.3 M NaCl nuclear extract, 100,000 x g supernatant; single approx. 190 kDa species forming covalent complexes; potential stem-loop
T1 sequence (P13864 whole entry, one chain of several): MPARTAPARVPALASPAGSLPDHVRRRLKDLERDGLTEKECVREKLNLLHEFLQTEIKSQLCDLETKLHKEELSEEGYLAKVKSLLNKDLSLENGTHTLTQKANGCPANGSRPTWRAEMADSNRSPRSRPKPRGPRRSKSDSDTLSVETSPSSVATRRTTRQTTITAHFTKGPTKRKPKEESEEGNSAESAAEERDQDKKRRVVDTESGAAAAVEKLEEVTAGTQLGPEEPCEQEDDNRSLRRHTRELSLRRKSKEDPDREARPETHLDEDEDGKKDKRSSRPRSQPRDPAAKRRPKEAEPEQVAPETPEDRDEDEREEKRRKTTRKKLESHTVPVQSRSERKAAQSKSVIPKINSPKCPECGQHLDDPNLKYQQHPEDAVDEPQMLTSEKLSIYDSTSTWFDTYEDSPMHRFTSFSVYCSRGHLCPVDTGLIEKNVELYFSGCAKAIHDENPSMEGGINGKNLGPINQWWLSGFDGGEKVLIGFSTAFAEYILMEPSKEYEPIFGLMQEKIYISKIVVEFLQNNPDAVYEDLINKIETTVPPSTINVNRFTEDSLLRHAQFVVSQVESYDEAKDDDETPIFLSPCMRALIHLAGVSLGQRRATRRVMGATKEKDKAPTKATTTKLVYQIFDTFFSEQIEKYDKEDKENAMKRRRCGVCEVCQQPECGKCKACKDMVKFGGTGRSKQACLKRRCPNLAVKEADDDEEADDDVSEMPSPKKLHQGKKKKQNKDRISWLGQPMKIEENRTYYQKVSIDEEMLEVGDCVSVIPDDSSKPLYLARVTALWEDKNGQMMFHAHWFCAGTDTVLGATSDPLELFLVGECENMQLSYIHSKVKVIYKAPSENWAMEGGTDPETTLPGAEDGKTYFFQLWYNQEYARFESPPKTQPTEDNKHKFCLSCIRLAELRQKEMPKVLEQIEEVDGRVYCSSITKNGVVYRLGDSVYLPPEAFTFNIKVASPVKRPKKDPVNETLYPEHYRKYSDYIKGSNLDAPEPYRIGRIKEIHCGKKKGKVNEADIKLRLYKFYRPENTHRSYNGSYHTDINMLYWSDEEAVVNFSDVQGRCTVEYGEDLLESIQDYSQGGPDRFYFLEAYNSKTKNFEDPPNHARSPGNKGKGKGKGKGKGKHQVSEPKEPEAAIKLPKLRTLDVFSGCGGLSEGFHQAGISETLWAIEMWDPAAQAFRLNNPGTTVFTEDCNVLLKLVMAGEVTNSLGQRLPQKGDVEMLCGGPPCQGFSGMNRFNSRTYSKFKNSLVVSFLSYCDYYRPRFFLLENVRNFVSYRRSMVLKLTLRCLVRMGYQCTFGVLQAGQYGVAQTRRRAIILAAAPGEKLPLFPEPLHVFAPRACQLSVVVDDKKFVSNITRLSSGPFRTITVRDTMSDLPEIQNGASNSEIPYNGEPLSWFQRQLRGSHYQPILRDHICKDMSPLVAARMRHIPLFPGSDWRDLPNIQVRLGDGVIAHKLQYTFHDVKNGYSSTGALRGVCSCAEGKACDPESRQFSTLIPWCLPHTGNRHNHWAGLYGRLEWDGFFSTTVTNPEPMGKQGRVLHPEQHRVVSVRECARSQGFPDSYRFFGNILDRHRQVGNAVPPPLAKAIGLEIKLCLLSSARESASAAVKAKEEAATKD

[6] = molecular target: T2, Hha I DNA methyltransferase (UniProt P05102 P05102:1-327); experiment: ss ODNs not substrates at 37 C
T2 sequence: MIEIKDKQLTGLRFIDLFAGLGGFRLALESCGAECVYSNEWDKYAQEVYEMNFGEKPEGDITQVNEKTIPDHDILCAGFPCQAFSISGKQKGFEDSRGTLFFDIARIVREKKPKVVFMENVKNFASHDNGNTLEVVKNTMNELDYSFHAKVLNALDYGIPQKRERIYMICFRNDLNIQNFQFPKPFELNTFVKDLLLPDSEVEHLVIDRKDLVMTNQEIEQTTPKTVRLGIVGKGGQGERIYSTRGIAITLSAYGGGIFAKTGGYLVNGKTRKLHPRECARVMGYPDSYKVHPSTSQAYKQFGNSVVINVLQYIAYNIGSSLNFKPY

[7] = molecular target: T1, DNA 5-C-methyltransferase (murine, …); experiment: methylation rate; 150 in Table 10; conditions: protein: extract; tags: 0.3 M NaCl nuclear extract, 100,000 x g supernatant; single approx. 190 kDa species forming covalent complexes
Method: (§2) Methylation Assay. Reaction mixtures (50 µl) in 0.1M imidazole, pH 7.4/20 mM EDTA/0.5 mM dithiothreitol contained 0.5 µg of each ODN indicated, ≈0.6 units of DNA 5-C-MTase (1 unit transfers 1 pmol to A (AS)·A'M_p (M1) per min; see Table 7), and 2.8 µCi (1 Ci=37 GBq) of [methyl-^3H]AdoMet (AdoMet=S-adenosylmethionine) (8 µM). Substrate C sites are in excess in the reaction, and methyl transfer is linear for >45 min. For accuracy, methylation rates <5 pmol/30 min were measured in quadrupled reaction mixtures (200 µl). After incubation for 30 min at 37° C., ODNs were processed for quantitation of radiolabel as described (20) with 25 µg of salmon sperm DNA added as carrier prior to perchloric acid precipitation.

[8] = molecular target: T1, DNA 5-C-methyltransferase (murine, …); experiment: inhibition; methylation rate; 3 in Table 6; potent inhibitor; conditions: protein: extract; tags: 0.3 M NaCl nuclear extract, 100,000 x g supernatant; single approx. 190 kDa species forming covalent complexes
[9] = molecular target: T1, DNA 5-C-methyltransferase (murine, …); experiment: methylation rate; 128 in Table 10; conditions: protein: extract; tags: 0.3 M NaCl nuclear extract, 100,000 x g supernatant; single approx. 190 kDa species forming covalent complexes
Method: as §2

[10] = molecular target: T1, DNA 5-C-methyltransferase (murine, …); experiment: methylation rate; 170 in Table 6, 130 in Table 10; conditions: protein: extract; tags: 0.3 M NaCl nuclear extract, 100,000 x g supernatant; single approx. 190 kDa species forming covalent complexes

For “5' ATTGCGNATTNCGGATNCGCGATC 3' (5-methylcytosine at 7, 11, 17, further chemistry not given here) [M2, AS with 5-methylcytosine (N) at 7, 11, 17 (non-CpG sites)]”, the “substrate activity for bacterial SssI methyltransferase (in words)” value [1] was “only moderate activity as a substrate”, the “DNA METHYLASE SUBSTRATE ACTIVITY, ACTIVITY (CPM)” value ([1]; Table 3, bacterial SssI enzyme preparation, 0.25 μg oligomer, average of 2 expts, background 1351) was 51047 CPM and the “methylation by most bacterial DNA methyltransferases (in words)” value [2] was “not methylated”. The “DNA METHYLASE SUBSTRATE ACTIVITY, ACTIVITY (CPM)” value (murine DNA 5-C-MTase [3]) was 882284 CPM, the “substrate activity for mammalian DNA methyltransferase (in words)” value (murine DNA 5-C-MTase [4]) was “exceptional substrate activity” and the “DNA METHYLASE (FL) SUBSTRATE ACTIVITY, ACTIVITY (CPM)” value (murine DNA 5-C-MTase [4]; Table 4, single and double stranded constructs, average of 2 expts, background 1813) was 157027 CPM. For the same molecule, the “RATE (rate of methylation relative to A)” value (murine DNA 5-C-MTase [4]; Table 9, ss ODNs with 5MeC substituted for C at the sites given) was 130 and the “RATE (rate of methylation relative to A)” value (murine DNA 5-C-MTase [4]; Table 10, ss ODNs with 5 mC and 5 FC substitutions) was 128.

For “ATTGCGNATTCCGGATCCGCGATC (phosphorothioate end caps, 5-methylcytosine 7, further chemistry not given here) [Oligomer C, phosphorothioate end capped ASM7]”, the “inhibition of growth of Friend leukemia cells (in words)” value (Friend leukemia cells) was “no appreciable effect”.

With “ATTGCGNATTCCGGATCNGCGATC (phosphorothioate end caps, 5-MeC 7, 5-FC 18, further chemistry not given here) [Oligomer A, phosphorothioate end capped ASM7F18]” the “inhibition of growth of Friend leukemia cells (in words)” value (Friend leukemia cells) was “more potent that B” and the “inhibition of methylation by incorporation of FC in position 18” value (murine DNA 5-C-MTase [4]; oligomer A compared with capped ASM7, cell free enzyme assay) was 97%.

With ATGACGCACCTCGTTGACGCGCTA (ssDNA, 5mC at 7) [structure 6 ODN] the binding signal [5] was > 300 relative to A.

GATCGCGGATCCGGAATGCGCAAT (ssDNA) [S (A')]: no binding [6].

ATTGCGCATTCCGGATCCGCGATC (ssDNA, 5mC at 5) [ASM5] was tested, and the binding signal [7] was 175 relative to A.

For ATTGCGCATTCCGGATCCGCGATC (ssDNA, 5mC at 7; 5-fluoro-C at 18 [5mC at 7; 5-fluoro-C at 18]) [ASM7 F18], the binding signal [8] was 3.2 relative to A.

In the case of ATTGCGCATTCCGGATCCGCGATC (ssDNA, 5mC at 7,11,17 [5mC at 7,11,17]) [M2 (AMx)], the binding signal [9] is reported as 130 relative to A.

ATTGCGCATTCCGGATCCGCGATC (ssDNA, 5mC at 7 [5mC at 7]) [ASM7] was tested, and the binding signal [10] was 140 relative to A.
